The values that follow are results of earlier work, collected in US20130344141A1, “CONCENTRATION AND MENTAL PERFORMANCE AMPLIFYING FORMULATION” (priority 2009, published 2013).

Where two headings read alike, the source gives them in different places.

In one series the test system is neuroblastoma cells. The following applies: in vitro.
Series [1] has as its system fungal microorganisms that cause onychomycosis. Conditions: Trichophyton rubrum, T. mentagrophytes, Microsporum canis, Epidermophyton floccosum, E. stockdale.
In series [2] the test system is cerebral cortex N-methyl-D-aspartate (NMDA) receptor.
In another series the test system is neurons. The following applies: by blocking glutamate-induced neuronal calcium influx and cell death.
The conditions of series [3]: in vivo.
For series [4] the following is noted: taken orally.
The conditions of series [5]: in vivo. The source holds these as a separate data set.
The conditions of series [6]: majority metabolized peripherally.
For series [7] the following is noted: in vivo, po.

`CN1CCCC1c1cccnc1` (stereo not shown) [nicotine, Nicotine]: for the setting “in the body”, the elimination half-life result is reported as “around two”. For the same molecule, under “in vivo”, the blood-brain barrier passage entry is given as “crosses the blood-brain barrier”.
Take `OC[C@H]1O[C@@H](OCCc2ccc(O)cc2)[C@H](O)[C@@H](O)[C@@H]1O` [salidroside]: in the series with neuroblastoma cells, the “apoptosis of neuroblastoma cells exposed to hydrogen peroxide” value is reported as “decreases apoptosis”.
Regarding `CC1CCC(C(C)C)C(O)C1` (stereo not shown) [menthol], the “activity against fungal microorganisms that cause onychomycosis” value in series [1] is “active”.
In the case of `C/C=C1\[C@H]2C=C(C)C[C@]1(N)c1ccc(=O)[nH]c1C2` [huperzine A, Huperzine A], in [2], the “affinity as NMDA receptor antagonist” value was “low affinity”. Moreover, the “acetylcholine elevation, frontal cortex” value with acetylcholine (maximal value, frontal cortex) is given as 125%. The “acetylcholine elevation, parietal cortex” value in the series with acetylcholine (maximal value, parietal cortex) is 105%. The “acetylcholine elevation, other brain regions” value in the series on acetylcholine (other brain regions) was 22-65%. Also, the “protection of neurons against toxic levels of glutamate” value in the series on neurons was “protects neurons”. In series [3], the blood-brain barrier passage entry is reported as “crosses the blood-brain barrier”.
In the case of “1,2-diacyl-:ussn:ueglycero-3-phosphocholine [phosphatidylcholine]”, the “time to maximum serum concentrations” value in series [4] is 8 to 12 h.
With `CCOC(=O)C1=C[C@]2(CC)CCCN3CCc4c(n1c1ccccc41)[C@@H]32` [vinpocetine, Eburnamenine-14-carboxylic acid; Ethyl Ester], in the series with platelet aggregation, the drug-induced platelet aggregation result is on record as “inhibits”. In addition, in series [5], the bioavailability – broadly, the share of a dose that reaches the circulation, judged against a reference dose that is usually intravenous – is reported as 7-57% and the “effect of food on absorption” value was “food significantly enhances absorption”.
In the case of `N[C@@H](Cc1ccc(O)c(O)c1)C(=O)O` [L-dopa, levodopa], the “share that reaches the brain” value in series [6] is given as “less than 1%”.
In the case of `Cn1c(=O)c2c(ncn2C)n(C)c1=O` [caffeine, 1,3,7-trimethylxanthine], the bioavailability in series [7] was 100%.
